Reference: patent US11241436B2, “Autophagy inducers for treatment of CNS conditions” (Northwestern University, priority 2017, dated 2022)

Key:
[1] = test system: Hela cells stably expressing GFP-LC3; assay: GFP-LC3 puncta in Hela cells stably expressing GFP-LC3, with or without bafilomycin A1; format: cell-based; settings: for numbers of GFP-LC3 puncta (autophagosomes): Hela cells, normal medium, compared with starvation; for accumulation of GFP-LC3 puncta, LC3-II and p62 (autophagic flux): co-treated with lysosomal inhibitor bafilomycin A1, compared to normal conditions
From the text: Results represent mean±s.e.m. Statistics are comparing the indicated value with or without BafA 1 to the one under the normal condition.
Accordingly, an important translational question is how to reduce Beclin 2 activity to maintain CB sensitivity and prevent drug tolerance induced by repeated cannabinoid exposure. To avoid the technical difficulty and risk of directly deleting Beclin 2 in vivo (such as injecting shRNAs or CRISPR/Cas9 constructs), which may disrupt Beclin 2-regulated autophagy, a novel and more convenient strategy to achieve the same goal via modulating the Beclin 2 interactome was developed and tested, which will not affect the essential autophagy function of Beclin 2 (FIG. 6A). Beclin 2 is present in two distinct protein complex pools, the Beclin 2-class Ill phosphatidylinositol 3-kinase complex for autophagy, and the Beclin 2-GASP1-GPCR complex in which Beclin 2-GASP1 binding is required for GPCR degradation. Thus, it was hypothesized that Beclin 2 is a limiting factor that regulates the balance between the two lysosomal degradation pathways, and that competitive recruitment of Beclin 2 to the autophagy machinery by activating autophagy prevents it from functioning in CB1R downregulation and thus restores CB1R functionality and reverses drug tolerance. To test this hypothesis, whether autophagy activation by brain-penetrable inducers inhibits the Beclin 2-GASP1 interaction was first examined. […] To determine autophagy activation by the two compounds, several markers of autophagy induction were analyzed, including formation of autophagosomes in cells and transgenic mice expressing GFP-tagged LC3 (an autophagosome marker), degradation of p62 (an autophagy substrate protein), and conversion of LC3 from the non-lipidated form (LC3-1) to the autophagosome-associated lipidated form (LC3-11). […]
To determine autophagy activation by the 2 compounds ML246 and Rg2, several markers of autophagy induction were analyzed, including formation of autophagosomes in cells and transgenic mice expressing GFP-tagged MAP1LC3/LC3 (microtubule-associated protein 1 light chain 3; an autophagosome marker), degradation of SQSTM1/p62 (sequestosome 1; an autophagy receptor and substrate protein), and conversion of LC3 from the non-lipidated form (LC3-I) to the phagophore- and autophagosome-associated lipidated form (LC3-II). […]

Beclin 2-GASP1 binding = assay: Coimmunoprecipitation of endogenous GASP1 with endogenous Beclin 2 from mouse brain lysates; format: in vivo; settings: injection to WT mice
From the text: Lysates in each group were pooled from 3 mice.
Based on this model, the effect of these inducers on the Beclin 2-GASP1 interaction in vitro and in mouse brain were subsequently examined.

Aβ42 = assay: Dot blot assay of Aβ42 in brain of 5XFAD mice; format: in vivo, mouse
Description: Total protein loading was labeled by Ponceau S. N=5. **, P<0.01, t test.
Total protein loading was labeled by Ponceau S. Triplicate experiments from 4-5 mice in each group were shown. Results represent mean±s.e.m. NS, not significant; *, P<0.05; **, P<0.01; ***, P<0.001, t test.
Total protein loading was labeled by Ponceau S. Triplicate experiments from 4 mice in each group were shown.
Dot blot assay. Snap frozen hemi-brain were homogenized in 800 μl phosphate-buffered saline (PBS; Sigma-Aldrich, D8537) with 1% Triton X-100 supplemented with halt proteinase inhibitor cocktail (ThermoFisher Scientific), and halt phosphatase inhibitor cocktail (ThermoFisher Scientific). Protein concentration was quantified using BCA Assay (Pierce). For Af342 dot blots, 10 mg/ml brain homogenates were extracted in guanidine buffer (5 M guanidine-HCl [GuHCl], 50 mM Tris HCl pH 8.0) overnight at room temperature. One μl of sample was spotted in triplicate on 0.2 μm nitrocellulose membrane, and dried for 1 h at 37° C. The membrane was stained with Ponceau S, and the dot blot signal on the membrane was detected by immunostaining with Aβ42 antibody (Invitrogen, 700254, 1:1000) and HRP-conjugated secondary antibody (Santa Cruz Biotechnology, sc2004, 1:2000). Aβ42 signals were normalized to the Ponceau S staining. To separate soluble and insoluble Aβ fractions, 10 mg/ml of the total homogenated brains were centrifuged at 14000 rpm, 4° C. for 30 min. The supernatant (soluble fraction) was used directly for dot blot assays. The pellet (insoluble fraction) was extracted in guanidine buffer overnight at room temperature, and used in dot blot analyses. […] One μl of each sample was spotted on nitrocellulose membrane for dot blot analysis.

[2] = 6-month old 5XFAD mice, ML246 5 mg/kg i.p. for 5 weeks

Compound	numbers of GFP-LC3 puncta (autophagosomes) [1]	accumulation of GFP-LC3 puncta, LC3-II and p62 (autophagic flux) [1]	binding between endogenous Beclin 2 and endogenous GASP1 (Beclin 2-GASP1 binding)	insoluble Aβ42 in brain (Aβ42; [2])	soluble Aβ42 in brain (Aβ42; [2])	effect on brain Aβ42 (Aβ42; autophagy-deficient 5XFAD Becn1+/− KO mice, ML246 5 weeks)	level of brain Aβ42 (Aβ42; Rg2 injection for 16 weeks in 2 month-old male 5XFAD mice vs vehicle (DMSO))
N=c1c2c(-c3ccccc3)c(-c3ccccc3)n(Cc3ccccc3)c2ncn1[C@H]1CC[C@H](O)CC1 [ML246]	markedly increased	more accumulation	dramatically decreased	decreased levels	decreased levels	abolished	
CC(C)=CCC[C@](C)(O)[C@H]1CC[C@]2(C)[C@@H]1[C@H](O)C[C@@H]1[C@@]3(C)CC[C@H](O)C(C)(C)[C@@H]3[C@@H](O[C@@H]3O[C@H](CO)[C@@H](O)[C@H](O)[C@H]3O[C@@H]3O[C@@H](C)[C@H](O)[C@@H](O)[C@H]3O)C[C@]12C [Rg2, ginsenoside Rg2]	markedly increased	more accumulation	dramatically decreased				effectively decreased
